# What was measured:
# white, hairy fungus = experiment: Soil burial of pressure-imbibed SYP wooden stakes in flower pots, visual examination; details: SYP stakes imbibed at 5000 ppm copper, 155 psi; about 3/4 buried in moist non-sterile soil, greenhouse at 78° C, after 5 months
# Experimental: Two pre-weighed SYP wooden stakes (¾″×¾″×12″ or ¾″×1½″×12″) were loaded into a hastaloy pressure vessel and covered with imbibement solution at room temperature. The imbibement solution was prepared by diluting the preparations given in Example 1 with water to a copper concentration of 5000 ppm. The vessel was evacuated for 5 min and then pressured with nitrogen for 1 h at 155 psi at which time the pressure was removed. The stakes were then removed from the vessel and allowed to drip dry. Weights were then recorded to insure that the wood was penetrated with the imbibement solution. The stakes were then dried overnight in a convection oven at 55° C. Weights of the dried stakes were then recorded.
# These treated stakes along with control (untreated) stakes were labeled and buried in a flower pot with about ¾ of the wood below the surface of non-sterile soil. The flower pots were kept moist in a greenhouse at […]. After 5 months, the stakes were visually examined.
# non-sterile soil = experiment: Ground burial exposure of treated newsprint and cardboard; details: newsprint soaked 5 min in 5000 ppm copper solution; buried in moist non-sterile garden soil 90 days, 18 to 24° C
# Description: Cellulosic materials, including newsprint and cardboard samples, treated with copper amidoxime or hydroxamic acid complexes are preserved after being buried in non-sterile soil for 90 days. (Procedure adapted from: Hussey, S. W., More Brownie Girl Scout Try-Its, Girl Scouts of the U.S.A., 81 (1989).) In the same soil, untreated newsprint and cardboard samples were consumed microbially resulting in disintegration of the materials. Given that the composition of mechanically pulped newsprint closely resembles that of coniferous trees (Table 1, U.S. Pat. No. 5,582,682), this method serves as a rapid test for screening for preservatives of wood.
# The imbibement solution was prepared by diluting the preparations given in Example 1 with water to a copper concentration of 5000 ppm. Samples of newsprint were soaked in solutions of the copper complexes for 5 min. The paper was removed from the imbibing solution, blotted nearly dry, air-dried overnight, and then placed in sacks made from nylon stockings. The sacks were labeled and closed with nylon twist-ties. Control samples of untreated newsprint were placed in similar nylon sacks. The sacks of treated and untreated newsprint were buried in clay pots containing moist, non-sterile garden soil for 90 days and maintained at approximately 18 to 24° C. After 90 days the sacks were unburied, opened, and the contents examined for decomposition. […]
substance,measurement,setting,value
Copper Complex of the Amidoxime of Sorbitol [Example 1],"visual examination of stakes for covering of white, hairy fungus below the soil surface","white, hairy fungus",showed no such covering
same,decomposition of treated newsprint,non-sterile soil,still intact and the printing was still legible

# From patent US6978724B2, “Copper complexes and their use as wood preservatives” (E.I. Du Pont de Nemours and Company, priority 2002, dated 2005)
